# Laboratory results from US11712434B2, “Compound having anti-cancer effect, and preparation method therefor and use thereof” (3D MEDICINES (BEIJING) CO., LTD., priority 2016, dated 2023).
# Assays:
# Test in all cases: Cell proliferation assay (Alamar Blue)
# Assay type in all cases: cell-based
# Hep3B2.1-7 = Hep3B2.1-7 liver cancer cell line, 6 days culture
# Method in brief: (§1)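 Resazurin-based viability: cells grown 6 d with compound at 37 °C, 5% CO2, then AlamarBlue 1-4 h, Ex 560/Em 590 nm. Dose range 9 points, 3.16-fold, top 100 or 30 μM. IC50 by nonlinear regression.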
# HUH7 = HUH7 liver cancer cell line, 6 days culture
# Method in brief: as §1
# SNU354 = SNU354 liver cancer cell line, 6 days culture
# Method in brief: as §1
# NCI-H1703 = NCI-H1703 (lung cancer cells), 6 days culture
# Method in brief: as §1
# HuTu80 = HuTu80 tumor cell line, 6 days culture
# Method in brief: as §1
# SNU475 = SNU475 liver cancer cell line, 6 days culture
# Method in brief: as §1
# SNU449 = SNU449 liver cancer cell line, 6 days culture
# Method in brief: as §1
# NCI-H526 = NCI-H526 tumor cell line, 6 days culture
# Method in brief: as §1
# SNU182 = SNU182 liver cancer cell line, 6 days culture
# Method in brief: as §1
# CCRF-CEM = CCRF-CEM tumor cell line, 6 days culture
# Method in brief: as §1
# SK-HEP-1 = SK-HEP-1 liver cancer cell line, 6 days culture
# Method in brief: as §1
# HEPG2 = HEPG2 liver cancer cell line, 6 days culture
# Method in brief: as §1
# NCI-H2170 = NCI-H2170 tumor cell line, 6 days culture
# Method in brief: as §1
# HT1080 = HT1080 tumor cell line, 6 days culture
# Method in brief: as §1
# JHH1 = JHH1 liver cancer cell line, 6 days culture
# Method in brief: as §1
# MFM-223 = MFM-223 tumor cell line, 6 days culture
# Method in brief: as §1
# JHH4 = JHH4 liver cancer cell line, 6 days culture
# Method in brief: as §1
# HT55 = HT55 tumor cell line, 6 days culture
# Method in brief: as §1
# 22RV1 = 22RV1 tumor cell line, 6 days culture
# Method in brief: as §1
# HCCLM3 = HCCLM3 tumor cell line, 6 days culture
# Method in brief: as §1
# JHH5 = JHH5 liver cancer cell line, 6 days culture
# Method in brief: as §1
# JHH2 = JHH2 liver cancer cell line, 6 days culture
# Method in brief: as §1
# MG63 = MG63 tumor cell line, 6 days culture
# Method in brief: as §1
# Li-7 = Li-7 liver cancer cell line, 6 days culture
# Method in brief: as §1
# MDA-MB-435S = MDA-MB-435S tumor cell line, 6 days culture
# Method in brief: as §1
# DU145 = DU145 tumor cell line, 6 days culture
# Method in brief: as §1
compound,measurement,setting,value
Cc1ccc(F)c(NC(=O)Nc2ccc(-c3cccc4[nH]nc(NC(=O)C[C@H](N)C(=O)N[C@@H](CCC(=O)O)C(=O)O)c34)cc2)c1 [Compound 1],IC50,Hep3B2.1-7; 144 h,3.29 µM
same,IC50,"HUH7; Homo sapiens, Huh-7, 144 h",2.89 µM
same,IC50,"SNU354; Homo sapiens, SNU-354, 144 h",3.59 µM
same,IC50,"NCI-H1703; Homo sapiens, 144 h",0.03 µM
same,IC50,"HuTu80; Homo sapiens, 144 h",1.98 µM
same,IC50,"SNU475; Homo sapiens, SNU-475, 144 h",4.81 µM
same,IC50,"SNU449; Homo sapiens, SNU-449, 144 h",16.5 µM
same,IC50,"NCI-H526; Homo sapiens, 144 h",7.45 µM
same,IC50,"SNU182; Homo sapiens, SNU-182, 144 h",30.9 µM
same,IC50,"CCRF-CEM; Homo sapiens, 144 h",6.14 µM
same,IC50,"SK-HEP-1; Homo sapiens, SK-HEP1, 144 h",16.6 µM
same,IC50,"HEPG2; Homo sapiens, 144 h",1.35 µM
same,IC50,"NCI-H2170; Homo sapiens, 144 h",5.32 µM
same,IC50,"HT1080; Homo sapiens, HT-1080, 144 h",10.4 µM
same,IC50,JHH1; 144 h,21.4 µM
same,IC50,"MFM-223; Homo sapiens, 144 h",3.59 µM
same,IC50,"JHH4; JHH-4, 144 h",25 µM
same,IC50,"HT55; Homo sapiens, 144 h",24.7 µM
same,IC50,"22RV1; Homo sapiens, 144 h",8.16 µM
same,IC50,"HCCLM3; Homo sapiens, 144 h",8.24 µM
same,IC50,JHH5; 144 h,16.6 µM
same,IC50,"JHH2; JHH-2, 144 h",43.6 µM
same,IC50,"MG63; Homo sapiens, MG-63, 144 h",2.34 µM
same,IC50,Li-7; 144 h,7.29 µM
same,IC50,"MDA-MB-435S; Homo sapiens, 144 h",10.5 µM
same,IC50,"DU145; Homo sapiens, DU-145, 144 h",4.25 µM
Cc1ccc(F)c(NC(=O)Nc2ccc(-c3cccc4[nH]nc(NC(=O)C[C@H](N)C(=O)N[C@@H](CCC(=O)N[C@@H](CCC(=O)N[C@@H](CCC(=O)N[C@@H](CCC(=O)O)C(=O)O)C(=O)O)C(=O)O)C(=O)O)c34)cc2)c1 [Compound 2],IC50,Hep3B2.1-7; 144 h,6.32 µM
same,IC50,"HUH7; Homo sapiens, Huh-7, 144 h",6.33 µM
same,IC50,"SNU354; Homo sapiens, SNU-354, 144 h",8.62 µM
same,IC50,"NCI-H1703; Homo sapiens, 144 h",0.07 µM
same,IC50,"HuTu80; Homo sapiens, 144 h",4.26 µM
same,IC50,"SNU475; Homo sapiens, SNU-475, 144 h",11.2 µM
same,IC50,"SNU449; Homo sapiens, SNU-449, 144 h",25.7 µM
same,IC50,"NCI-H526; Homo sapiens, 144 h",11.3 µM
same,IC50,"SNU182; Homo sapiens, SNU-182, 144 h",46.2 µM
same,IC50,"CCRF-CEM; Homo sapiens, 144 h",10.4 µM
same,IC50,"SK-HEP-1; Homo sapiens, SK-HEP1, 144 h",31 µM
same,IC50,"HEPG2; Homo sapiens, 144 h",3.86 µM
same,IC50,"NCI-H2170; Homo sapiens, 144 h",7.69 µM
same,IC50,"HT1080; Homo sapiens, HT-1080, 144 h",24.9 µM
same,IC50,JHH1; 144 h,33.9 µM
same,IC50,"MFM-223; Homo sapiens, 144 h",6.93 µM
same,IC50,"JHH4; JHH-4, 144 h",36.8 µM
same,IC50,"HT55; Homo sapiens, 144 h",40.1 µM
same,IC50,"22RV1; Homo sapiens, 144 h",11.5 µM
same,IC50,"HCCLM3; Homo sapiens, 144 h",12 µM
same,IC50,JHH5; 144 h,24.7 µM
same,IC50,"JHH2; JHH-2, 144 h",88.2 µM
same,IC50,"MG63; Homo sapiens, MG-63, 144 h",5.49 µM
same,IC50,Li-7; 144 h,19.5 µM
same,IC50,"MDA-MB-435S; Homo sapiens, 144 h",18.6 µM
same,IC50,"DU145; Homo sapiens, DU-145, 144 h",9.34 µM
Cc1ccc(F)c(NC(=O)Nc2ccc(-c3cccc4[nH]nc(NC(=O)CCCCCNC(=O)C[C@H](N)C(=O)N[C@@H](CCC(=O)O)C(=O)O)c34)cc2)c1 [Compound 4],IC50,Hep3B2.1-7,> 100 µM
same,IC50,HUH7,> 100 µM
same,IC50,SNU354,> 100 µM
same,IC50,NCI-H1703,1.24 µM
same,IC50,HuTu80,75.4 µM
same,IC50,SNU475,> 100 µM
same,IC50,SNU449,> 100 µM
same,IC50,NCI-H526,> 100 µM
same,IC50,SNU182,> 100 µM
same,IC50,CCRF-CEM,> 100 µM
same,IC50,SK-HEP-1,> 100 µM
same,IC50,HEPG2,54.3 µM
same,IC50,NCI-H2170,> 100 µM
same,IC50,HT1080,> 100 µM
same,IC50,JHH1,> 100 µM
same,IC50,MFM-223,> 100 µM
same,IC50,JHH4,> 100 µM
same,IC50,HT55,> 100 µM
same,IC50,22RV1,> 100 µM
same,IC50,HCCLM3,> 100 µM
same,IC50,JHH5,> 100 µM
same,IC50,JHH2,> 100 µM
same,IC50,MG63,> 100 µM
same,IC50,Li-7,> 100 µM
same,IC50,MDA-MB-435S,> 100 µM
same,IC50,DU145,> 100 µM
